The target of series [1] is T1, Replicase polyprotein 1ab (Severe acute respiratory syndrome coronavirus 2, UniProt P0DTD1). The series is described as follows: Inhibition of SARS-CoV-2 PLpro.
Series [2] deals with Replicase polyprotein 1ab (Severe acute respiratory syndrome coronavirus 2) (UniProt P0DTD1). Put plainly: Inhibition of SARS-CoV-2 PLpro expressed in Escherichia coli BL21(DE3) using CBZ-RLRGG-AMC as substrate at 5 uM incubated for 30 mins followed by substrate addition by FRET assay.
The target of series [3] is T1, Replicase polyprotein 1ab. The series is described as follows: Inhibition of SARS-CoV2 main protease.
The target in series [4] is T2, Cathepsin B (Homo sapiens, UniProt P07858). Put plainly: Reversible inhibition of His-tagged recombinant human Cathepsin B expressed in HEK293 cells using Z-Leu-Arg-AMC as substrate at 120 nM incubated for 2.5 hrs followed by 100 fold dilution and incubated for 5 min and further incubated with substrate by fluorescence based analysis. To be noted: time 155.0 min.
For series [5], the system named is SARS-CoV-2. Put plainly: Antiviral activity against SARS-CoV-2 infected in Vero E6 cells assessed as reduction in viral RdRP RNA levels at 15 uM measured after 48 hrs by qRT-PCR analysis. Type of series: functional, Severe acute respiratory syndrome coronavirus 2. Also noted: scale not given: the % may be the effect or the level left.
The target of series [6] is T3, Procathepsin L (Homo sapiens, UniProt P07711). The series is described as follows: Irreversible inhibition of human Cathepsin L using Z-Leu-Arg-AMC as substrate at 300 nM incubated for 5 hrs followed by 100 fold dilution and incubated for 5 min and further incubated with substrate by fluorescence based analysis. To be noted: time 305.0 min.
Target sequence in this assay (P07711 114-333 limits assumed): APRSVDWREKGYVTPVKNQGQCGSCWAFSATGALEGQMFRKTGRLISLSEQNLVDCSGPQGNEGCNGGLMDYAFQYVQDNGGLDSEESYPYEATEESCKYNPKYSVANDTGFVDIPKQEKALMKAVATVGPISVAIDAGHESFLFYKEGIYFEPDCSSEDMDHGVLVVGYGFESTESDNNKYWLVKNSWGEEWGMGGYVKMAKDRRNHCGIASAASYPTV
For series [7], the target named is Replicase polyprotein 1ab (Severe acute respiratory syndrome coronavirus 2) (UniProt P0DTD1). Put plainly: Inhibition of SARS-CoV-2 MPro expressed in Escherichia coli BL21(DE3) using Dabcyl-KLSAVLQSGERKM-Edans as substrate assessed as Kinact/Ki measured for 30 mins by fluorimetry based microplate reader analysis.
Series [8] shares this target. The series is described as follows: Inhibition of SARS-CoV-2 PLpro expressed in Escherichia coli BL21(DE3) using CBZ-RLRGG-AMC as substrate assessed as inactivation constant measured for 30 mins by fluorimetry based microplate reader analysis.
Series [9] is described as follows: Acute toxicity in overnight fasted Kunming mouse assessed as reduction in body weight at 1049 to 4000 mg/kg, iv measured after 15 days. Type of series: organism-based. To be noted: in vivo, 360 h, dose 1049-4000 mg/kg, time 15 day.
In series [10] the target is Replicase polyprotein 1ab (Severe acute respiratory syndrome coronavirus 2) (UniProt P0DTD1). Put plainly: Inhibition of SARS-CoV-2 MPro expressed in Escherichia coli BL21(DE3) using Dabcyl-KLSAVLQSGERKM-Edans as substrate at 5 uM incubated for 30 mins followed by substrate addition by FRET assay.
Series [11] can be described thus: Acute toxicity in Sprague-Dawley rat assessed as cellular swelling in hepatocytes at 300 mg/kg, po administered via gavage for 4 weeks. Type of series: organism-based. To be noted: in vivo, 672 h.
The nature of series [12]: Drug metabolism in normal saline assessed as conversion of closed form to open form by measuring rate constant at equilibrium at 2 mg/ml measured at 5 hrs by RP-HPLC analysis. Type of series: ADME. To be noted: buffer.
For series [13], the target named is Serine/threonine-protein kinase pim-1 (Homo sapiens) (UniProt P11309). The series is described as follows: Inhibition of human PIM1 at 1 uM by DiscoverX KINOMEscan assay relative to control.
Sequence of Serine/threonine-protein kinase pim-1 (Homo sapiens) (P11309 whole entry, looked up): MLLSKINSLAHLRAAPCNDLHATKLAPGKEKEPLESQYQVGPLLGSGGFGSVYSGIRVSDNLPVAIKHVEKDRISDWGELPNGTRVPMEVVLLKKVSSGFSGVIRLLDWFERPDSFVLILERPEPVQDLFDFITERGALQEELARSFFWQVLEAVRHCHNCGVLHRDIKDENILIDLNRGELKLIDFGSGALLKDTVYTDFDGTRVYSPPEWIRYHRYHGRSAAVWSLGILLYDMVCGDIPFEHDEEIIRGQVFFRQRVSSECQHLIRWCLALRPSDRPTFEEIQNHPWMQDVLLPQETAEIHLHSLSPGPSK
For series [14], the target named is T1, Replicase polyprotein 1ab. Put plainly: Inhibition of SARS-CoV-2 PLpro expressed in Escherichia coli BL21(DE3) using CBZ-RLRGG-AMC as substrate incubated for 30 mins followed by substrate addition by FRET assay.
A short description of series [15]: Toxicity in overnight fasted Kunming mouse assessed as animal death at 400 mg/kg, iv measured after 15 days. It counts as organism-based. To be noted: in vivo, 360 h, time 15 day.
The nature of series [16]: Acute toxicity in Sprague-Dawley rat assessed as effect on food consumption at upto 300 mg/kg, po administered via gavage for 4 weeks followed by recovery for 4 weeks. Type of series: organism-based. To be noted: in vivo, 1344 h, time 8 weeks.
In series [17] the target is T1, Replicase polyprotein 1ab. Put plainly: Inhibition of SARS-CoV-2 MPro expressed in Escherichia coli BL21(DE3) using Dabcyl-KLSAVLQSGERKM-Edans as substrate incubated for 30 mins followed by substrate addition by FRET assay.
Series [18] can be described thus: Acute toxicity in iv dosed overnight fasted Kunming mouse assessed as maximum tolerated dose measured after 15 days. Type of series: organism-based. To be noted: in vivo, time 15 day.
Series [19] relates to SARS-CoV-2. Put plainly: Antiviral activity against SARS-CoV-2 infected in Vero E6 cells assessed as reduction in viral nucleoprotein expression measured after 48 hrs by qRT-PCR analysis. Type of series: functional, organism-based. To be noted: Severe acute respiratory syndrome coronavirus 2, Vero C1008, 48 h.
Series [20] deals with T1, Replicase polyprotein 1ab. Put plainly: Inhibition of SARS-CoV-2 PLpro expressed in Escherichia coli BL21(DE3) using CBZ-RLRGG-AMC as substrate assessed as inhibition constant measured for 30 mins by fluorimetry based microplate reader analysis.
Series [21] can be described thus: Acute toxicity in overnight fasted Kunming mouse assessed as signs of abnormality at 1310 mg/kg, iv measured after 15 days. To be noted: in vivo, 360 h, time 15 day. Type of series: organism-based.
Another series deals with Vero C1008. The series is described as follows: Cytotoxicity against African green monkey Vero E6 cells infected with SARS-CoV-2 assessed as reduction in cell viability at 15 uM measured after 48 hrs by CCK-8 assay. It counts as toxicity, cell-based. To be noted: chlorocebus sabaeus, vero c1008, 48 h.
For series [22], the target named is Replicase polyprotein 1ab (Severe acute respiratory syndrome coronavirus 2) (UniProt P0DTD1). The series is described as follows: Covalent binding affinity to Cys111 residue of SARS-CoV-2 PLpro expressed in Escherichia coli BL21(DE3) assessed as mass shift at 3 to 15 uM incubated for 4 hrs followed by trypsin digestion by mass spectrometry analysis. To be noted: dose 3-15 µM.

A short description of series [23]: Acute toxicity in Sprague-Dawley rat assessed as cellular swelling in hepatocytes at 300 mg/kg, po administered via gavage for 4 weeks followed by recovery for 4 weeks. Type of series: organism-based. To be noted: in vivo, 1344 h, time 8 weeks.
Series [24] concerns the target T1, Replicase polyprotein 1ab. Put plainly: Inhibition of SARS-CoV-2 MPro expressed in Escherichia coli BL21(DE3) using Dabcyl-KLSAVLQSGERKM-Edans as substrate assessed as inhibition constant measured for 30 mins by fluorimetry based microplate reader analysis.
In series [25] the target is Replicase polyprotein 1ab (Severe acute respiratory syndrome coronavirus 2) (UniProt P0DTD1). The series is described as follows: Binding affinity to SARS-CoV-2 PLpro expressed in Escherichia coli BL21(DE3) assessed as mass shift at 30 uM incubated for 4 hrs by mass spectrometry analysis.
A short description of series [26]: Acute toxicity in overnight fasted Kunming mouse assessed as toxic signs at 1050 mg/kg, iv measured after 15 days. Type of series: organism-based. To be noted: in vivo, 360 h, time 15 day.
A short description of series [27]: Acute toxicity in Sprague-Dawley rat assessed as reduction in body weight at upto 300 mg/kg, po administered via gavage for 4 weeks followed by recovery for 4 weeks. It counts as organism-based. To be noted: in vivo, 1344 h, time 8 weeks.
Series [28] concerns the target Replicase polyprotein 1ab (Severe acute respiratory syndrome coronavirus 2) (UniProt P0DTD1). The series is described as follows: Binding affinity to SARS-CoV-2 MPro expressed in Escherichia coli BL21(DE3) assessed as mass shift at 15 uM incubated for 4 hrs by mass spectrometry analysis.
The target in series [29] is Serine/threonine-protein kinase PAK 2 (Homo sapiens) (UniProt Q13177). The series is described as follows: Inhibition of human PAK2 at 1 uM by DiscoverX KINOMEscan assay relative to control.
Sequence of Serine/threonine-protein kinase PAK 2 (Homo sapiens) (Q13177 whole entry): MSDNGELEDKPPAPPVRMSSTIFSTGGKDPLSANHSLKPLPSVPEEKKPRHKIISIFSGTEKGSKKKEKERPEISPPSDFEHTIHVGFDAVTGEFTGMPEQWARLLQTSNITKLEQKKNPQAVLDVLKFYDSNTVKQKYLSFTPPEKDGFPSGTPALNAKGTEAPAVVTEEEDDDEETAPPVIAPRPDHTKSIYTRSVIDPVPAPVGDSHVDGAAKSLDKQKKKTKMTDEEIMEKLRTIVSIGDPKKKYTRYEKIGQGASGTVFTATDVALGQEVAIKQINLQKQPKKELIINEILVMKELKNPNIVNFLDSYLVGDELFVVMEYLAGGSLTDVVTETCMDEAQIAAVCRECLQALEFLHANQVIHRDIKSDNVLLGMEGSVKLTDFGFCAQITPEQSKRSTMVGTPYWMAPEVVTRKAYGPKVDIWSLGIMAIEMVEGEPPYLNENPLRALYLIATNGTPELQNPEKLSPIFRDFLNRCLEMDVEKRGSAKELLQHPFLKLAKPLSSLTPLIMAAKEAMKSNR
A short description of series [30]: Acute toxicity in iv dosed overnight fasted Kunming mouse assessed as minimum lethal dose measured after 15 days. Type of series: organism-based. To be noted: in vivo, 360 h, time 15 day.
Series [31] deals with T3, Procathepsin L. Put plainly: Inhibition of human Cathepsin L using Z-Leu-Arg-AMC as substrate incubated for 30 mins followed by substrate addition by fluorescence based analysis.
Target sequence in this assay (P07711 whole entry): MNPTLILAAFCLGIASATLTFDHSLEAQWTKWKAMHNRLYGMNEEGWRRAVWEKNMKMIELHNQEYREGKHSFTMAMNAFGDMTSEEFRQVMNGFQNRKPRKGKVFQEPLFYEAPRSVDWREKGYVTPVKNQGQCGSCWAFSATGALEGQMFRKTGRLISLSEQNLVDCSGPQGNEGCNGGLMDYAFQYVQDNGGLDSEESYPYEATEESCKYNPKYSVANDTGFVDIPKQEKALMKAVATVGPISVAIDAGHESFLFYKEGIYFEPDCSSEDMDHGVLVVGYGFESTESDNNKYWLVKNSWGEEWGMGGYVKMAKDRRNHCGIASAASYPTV
Series [32] has as its system SARS-CoV-2. Put plainly: Antiviral activity against SARS-CoV-2 infected in Vero E6 cells assessed as reduction in viral nucleoprotein levels at 5 uM pretreated with Vero E6 cells for 1 hr followed by viral infection and further incubated for 1 followed by compound washout and measured after 48 hrs by Hoechst 33258 staining based fluorescence microscopy analysis. Type of series: functional, organism-based. To be noted: Severe acute respiratory syndrome coronavirus 2, time 2.0 hrs.

Series [33] has as its target Replicase polyprotein 1ab (Severe acute respiratory syndrome coronavirus 2) (UniProt P0DTD1). Put plainly: Inhibition of SARS-CoV-2 MPro expressed in Escherichia coli BL21(DE3) using Dabcyl-KLSAVLQSGERKM-Edans as substrate assessed as inactivation constant measured for 30 mins by fluorimetry based microplate reader analysis.
The nature of series [34]: Acute toxicity in overnight fasted Kunming mouse assessed as animal death at 1050 mg/kg, iv measured after 15 days. It counts as organism-based. To be noted: in vivo, 360 h, time 15 day.
The nature of series [35]: Solubility of compound in saline at higher dose. To be noted: buffer. Type of series: physicochemical.
Series [36] deals with T2, Cathepsin B. The series is described as follows: Inhibition of His-tagged recombinant human Cathepsin B expressed in HEK293 cells using Z-Leu-Arg-AMC as substrate incubated for 30 mins followed by substrate addition by fluorescence based analysis.
Series [37] addresses Replicase polyprotein 1ab (Severe acute respiratory syndrome coronavirus 2) (UniProt P0DTD1). Put plainly: Inhibition of SARS-CoV-2 PLpro expressed in Escherichia coli BL21(DE3) using CBZ-RLRGG-AMC as substrate assessed as Kinact/Ki measured for 30 mins by fluorimetry based microplate reader analysis.
Series [38] has the same target. Put plainly: Covalent binding affinity to Cys145 residue of SARS-CoV-2 MPro expressed in Escherichia coli BL21(DE3) assessed as trypsin digestion mediated mass shift by mass spectrometry analysis.

The source made the active and inactive calls. The calls are words filed in the database; no cut-off is given here.

The compound `COC(=O)/C=C/C(=O)NNC(=O)/C=C/c1ccccc1C(=O)N[C@H](C)c1cccc2ccccc12` gave an IC50 in series [1] of 94 nM.
For the compound `CNS(=O)(=O)c1cccc2c1C(=O)C(Nc1ccccc1)=CC2=O`, the inhibition entry in series [2] is “Active”.
For `CC(C)C[C@H](NC(=O)[C@@H](NC(=O)OCc1ccccc1)C(C)C)C(=O)N[C@@H](C[C@@H]1CCNC1=O)C(=O)c1nc2ccccc2s1`, the affinity in [3] corresponds to a Ki of 14.5 nM.
In the case of `Cl.O=C1C=C(Nc2ccccc2N2CCNCC2)C2=NS(=O)(=O)c3cccc1c32`, the inhibition entry (at Cathepsin B [4]; on Procathepsin L [6]; in series [10]; in [2]) was “Active” throughout. For the same compound, the Activity in the series on SARS-CoV-2 [5] was 99.9%; in series [9], “Non-Toxic”; in series [11], “Toxic”; in series [15] it was “Non-Toxic”; in series [16], “Non-Toxic”; in [21], “Non-Toxic”. Also, the Activity entry in the series with Vero C1008 was “Non-Toxic”; in [23] it was “Non-Toxic”; in series [25], 410 Da; in [26], “Non-Toxic”; in [27], “Non-Toxic”; in [28], 392 Da. In series [34], the Activity result is listed as “Non-Toxic”. Moreover, the Ratio in series [7] turned out to be 710 M⁻¹ s⁻¹; in [37], 500 M⁻¹ s⁻¹. The Kinact came to 0.0081 s⁻¹ in series [8] and 0.0048 s⁻¹ in series [33]. Besides, in series [12], the Ke worked out at 0.012 min⁻¹. Further, the inhibition in series [13] was found to be 35%; in series [29], 10%. Also, the IC50 was found to be 990 nM in series [14]; 120 nM in [17]; 3.9 µM with SARS-CoV-2 [19]; 2200 nM at Procathepsin L [31]; 8.8 µM on Cathepsin B [36]. The MTD at 360 h in series [18] was determined as 1000 mg/kg. Further, the Ki in series [20] is 16 µM; in series [24] it was 7.1 µM. The outcome (in series [22]; in the series on SARS-CoV-2 [32]; in series [38]) was Active. Moreover, the MLC in [30] was determined as 1300 mg/kg. Moreover, the solubility result in series [35] was “Insoluble”.
With `CC1=NC2C(=O)C(Nc3ccc(C)cc3)=CC(=O)C2S1` (stereo unspecified), in series [1], it took 390 nM to reach half-maximal inhibition (IC50).

The values above are taken from ChEMBL document CHEMBL5150074, “Structure-Based Design of a Dual-Targeted Covalent Inhibitor Against Papain-like and Main Proteases of SARS-CoV-2” (J Med Chem, 2022).
